Tests used:
[1] = molecular target: T1, mGlu5 receptor (Rattus norvegicus, UniProt P31424); experiment: Radioligand binding assay ([3H]MPEP) at metabotropic glutamate receptor 5 in rat brain; details: rat forebrain membranes, 4 nM [3H]MPEP; read-out: affinity (Ki) for mGlu5 receptor
T1 construct: from tissue; host or cells: forebrain (cortex, striatum and hippocampus) of male Sprague Dawley rats
Method: Radioligand Binding Assay at metabotropic glutamate receptor 5 in rat brain.
a) Membrane preparation: male Sprague Dawley rats (200-300 g, Charles River, Italy) were killed by cervical dislocation and the forebrain (cortex, striatum and hippocampus) was homogenized (2×20 sec) in 50 vols of cold 50 mM Tris buffer pH 7.4, using a Politron homogenizer (Kinematica). Homogenates were centrifuged at 48000×g for 15 min, resuspended in 50 vols of the same buffer, incubated at 37° C. for 15 min and centrifuged and resuspended two more times. The final pellets were frozen and stored at −80° C. until use.
b) Binding assay: pellets from rat forebrain were resuspended in 100 vols of 20 mM HEPES, 2 mM MgCl2, 2 mM CaCl2, pH 7.4. The membranes were incubated in a final volume of 1 ml for 60 min at 25° C. with 4 nM [^3H]MPEP in the absence or presence of competing drugs. Non-specific binding was determined in the presence of 10 μM MPEP (Spooren W. et al., Trends Pharmacol Sci. 22, 331-337, 2001). The incubation was stopped by the addition of cold Tris buffer pH 7.4 and rapid filtration through 0.5% polyethyleneimine pretreated Filtermat 1204-401 (Wallac) filters. The filters were then washed with cold buffer and the radioactivity retained on the filters was counted by liquid scintillation spectrometry. […]

[2] = test system: conscious rats; experiment: Cystometry in conscious rats (bladder volume capacity); assay type: in vivo, rat; details: for effect on bladder volume capacity: 1-3 h after treatment; for "In vivo" cystometry MED (Minimal Effective Dose that induces statistically significant increase of bladder volume capacity): oral
Method: Male Sprague-Dawley rats [Crl: CD® (SD) IGS BR] of 300-400 g b.w. supplied by Charles River Italia were used. The animals were housed with free access to food and water and maintained on a forced 12-hour-light/12-hour-dark cycle at 22-24° C. of temperature, except during the experiment. To quantify urodynamic parameters in conscious rats, cystometrographic studies were performed according to the procedure previously reported (Guarneri et al., Pharmacol. Res. 24: 175, 1991).
Briefly, the rats were anaesthetised by intraperitoneal administration of 3 ml/kg of Equithensin solution (pentobarbital 30 mg/kg and chloral hydrate 125 mg/kg) and placed in a supine position. An approximately 10 mm long midline incision was made in the shaved and cleaned abdominal wall. The urinary bladder was gently freed from adhering tissues, emptied and then cannulated via an incision in the bladder body, using a polyethylene cannula (0.58 mm internal diameter, 0.96 mm external diameter) which was permanently sutured with silk thread. The cannula was exteriorised through a subcutaneous tunnel in the retroscapular area, where it was connected to a plastic adapter in order to avoid the risk of removal by the animal. For drug testing, the rats were utilised one day after implantation.
On the day of the experiment, the rats were placed in modified Bollman cages, i.e., restraining cages that were large enough to permit the rats to adopt a normal crouched posture, but narrow enough to prevent turning around. After a stabilisation period of about 20 minutes, the free tip of the bladder cannula was connected through a T-shaped tube to a pressure transducer (Statham P23XL) and to a peristaltic pump (Gilson Minipuls 2) for continuous infusion of a warm (37° C.) saline solution into the urinary bladder, at a constant rate of 0.1 ml/minute. The intraluminal-pressure signal during infusion of saline into the bladder (cystometrogram) was continuously recorded on a polygraph (Rectigraph-8K San-ei with BM614/2 amplifier from Biomedica Mangoni) or stored on PC by data acquisition system (PowerLab, Chart 4 software, AD Instruments). From the cystometrogram, bladder volume capacity (BVC) was evaluated. BVC (in ml) is defined as the volume of saline infused into the bladder necessary to induce detrusor contraction followed by micturition. Basal BVC value was evaluated as the mean of the values observed in the cystometrograms recorded in an initial period of 30-60 minutes. At this point in the assay, the infusion was interrupted and the test compounds were administered orally by a stomach tube. The bladder infusion restarted and changes in BVC were evaluated from the mean values obtained in the cystometrograms observed during 1, 2, and 3 hours after treatment. The compounds were administered in a volume of 2 ml/kg. Groups of control animals received the same amount of vehicle corresponding to a solution 0.5% methocel in water.
Under the given test conditions, measurement of BVC is equivalent to measurement of interval time between micturitions.
Each experimental group was composed of 4-11 animals. All data were expressed as mean±standard error. The percent change of BVC versus the basal value, as well as Δ value (difference in ml) of BVC (BVC at time “x” minus basal value), were also evaluated for each rat/time. In the figures, data are reported as % change versus the basal value.
Statistical analysis on BVC values, as well as on Δ values, was performed by S.A.S./STAT software, version 6.12. The difference between vehicle and active treatment effect was evaluated on Δ values of BVC, whereas the difference between the values at different times versus the basal values was evaluated on original BVC data.

T1 sequence (P31424 21-1203): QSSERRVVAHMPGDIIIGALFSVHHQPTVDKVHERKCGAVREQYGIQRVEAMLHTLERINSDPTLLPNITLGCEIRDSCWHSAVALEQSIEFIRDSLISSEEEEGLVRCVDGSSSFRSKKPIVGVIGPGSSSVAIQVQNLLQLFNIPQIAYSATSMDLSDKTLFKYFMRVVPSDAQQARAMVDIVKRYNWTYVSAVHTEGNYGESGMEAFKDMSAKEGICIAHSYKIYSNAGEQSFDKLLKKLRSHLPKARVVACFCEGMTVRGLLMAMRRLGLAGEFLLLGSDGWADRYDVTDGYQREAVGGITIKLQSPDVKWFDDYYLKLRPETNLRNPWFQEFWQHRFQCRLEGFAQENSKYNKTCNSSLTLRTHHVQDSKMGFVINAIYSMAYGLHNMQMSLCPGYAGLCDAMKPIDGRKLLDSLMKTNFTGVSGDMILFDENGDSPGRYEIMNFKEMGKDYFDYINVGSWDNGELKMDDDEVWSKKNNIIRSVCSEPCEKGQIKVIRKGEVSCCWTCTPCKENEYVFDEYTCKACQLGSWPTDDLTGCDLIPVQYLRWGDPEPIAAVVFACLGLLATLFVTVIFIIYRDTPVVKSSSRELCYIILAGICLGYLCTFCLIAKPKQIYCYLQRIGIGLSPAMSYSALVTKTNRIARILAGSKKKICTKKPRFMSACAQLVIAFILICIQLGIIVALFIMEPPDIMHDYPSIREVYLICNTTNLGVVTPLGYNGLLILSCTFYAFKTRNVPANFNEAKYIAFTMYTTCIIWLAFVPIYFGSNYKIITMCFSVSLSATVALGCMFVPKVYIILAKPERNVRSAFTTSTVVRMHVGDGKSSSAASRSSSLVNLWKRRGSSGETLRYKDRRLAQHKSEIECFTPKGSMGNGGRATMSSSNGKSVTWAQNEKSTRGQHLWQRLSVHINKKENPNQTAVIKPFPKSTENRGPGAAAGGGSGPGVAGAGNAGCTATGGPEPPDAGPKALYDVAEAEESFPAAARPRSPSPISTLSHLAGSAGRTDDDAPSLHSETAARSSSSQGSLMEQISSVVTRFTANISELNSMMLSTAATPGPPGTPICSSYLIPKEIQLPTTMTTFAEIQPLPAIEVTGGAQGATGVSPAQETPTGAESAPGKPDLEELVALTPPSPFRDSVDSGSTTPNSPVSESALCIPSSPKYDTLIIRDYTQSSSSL

In the case of `Cc1cccc(C#CC=C2CCN(c3ncccc3[N+](=O)[O-])CC2)n1` [Example 1, 2-{4-[3-(6-Methylpyridin-2-yl)prop-2-ynylidene]piperidin-1-yl}-3-nitropyridine], the Ki [1] is reported as 0.37 nM, the “effect on bladder volume capacity” value ([2]; 1 mg/kg orally) is reported as “proved effective in increasing the bladder volume capacity” and the “effect on bladder volume capacity” value ([2]; 3 mg/kg orally) is reported as “proved effective in increasing the bladder volume capacity”. For the same compound, the “"In vivo" cystometry MED (Minimal Effective Dose that induces statistically significant increase of bladder volume capacity)” value [2] was 3 mg/kg os.
With `Cc1cccc(C#CC=C2CCN(c3nc(C)ccc3[N+](=O)[O-])CC2)n1` [Example 5, 6-Methyl-2-[4-[3-(6-methylpyridin-2-yl)prop-2-ynylidene]piperidin-1-yl]-3-nitropyridine] the “"In vivo" cystometry MED (Minimal Effective Dose that induces statistically significant increase of bladder volume capacity)” value [2] was 0.1 mg/kg os.
In the case of `COc1ccc([N+](=O)[O-])c(N2CCC(=CC#Cc3cccc(C)n3)CC2)n1` [Example 6, 6-Methoxy-2-{4-[3-(6-methylpyridin-2-yl)prop-2-ynylidene]piperidin-1-yl}-3-nitropyridine], the “"In vivo" cystometry MED (Minimal Effective Dose that induces statistically significant increase of bladder volume capacity)” value [2] is reported as 1 mg/kg os.
`O=[N+]([O-])c1cccnc1N1CCC(=CC#Cc2ccccn2)CC1` [Example 9, 3-Nitro-2-[4-(3-pyridin-2-ylprop-2-ynylidene)piperidin-1-yl]pyridine] was tested, and the “"In vivo" cystometry MED (Minimal Effective Dose that induces statistically significant increase of bladder volume capacity)” value [2] was 1 mg/kg os.
For `O=[N+]([O-])c1cccnc1N1CCC(=CC#Cc2ccccc2)CC1` [Example 10, 3-Nitro-2-[4-(3-phenylprop-2-ynylidene)piperidin-1-yl]pyridine], the “effect on bladder volume capacity” value ([2]; 0.3 mg/kg orally) was “slightly increased the bladder volume capacity (not statistical significant)”, the “effect on bladder volume capacity” value ([2]; 1 mg/kg orally) was “proved effective in increasing bladder volume capacity” and the “"In vivo" cystometry MED (Minimal Effective Dose that induces statistically significant increase of bladder volume capacity)” value [2] was 1 mg/kg os.
In the case of `O=[N+]([O-])c1cccnc1N1CCC(=CC#Cc2ccc(F)nc2)CC1` [Example 35, 2-{4-[3-(6-Fluoropyridin-3-yl)prop-2-ynylidene]piperidin-1-yl}-3-nitropyridine], the “"In vivo" cystometry MED (Minimal Effective Dose that induces statistically significant increase of bladder volume capacity)” value [2] is reported as 3 mg/kg os.
For `Cc1cccc(C#CC=C2CCN(c3ccccc3C#N)CC2)n1` [Example 43, 2-{4-[3-(6-Methylpyridin-2-yl)prop-2-ynylidene]piperidin-1-yl}benzonitrile], the “"In vivo" cystometry MED (Minimal Effective Dose that induces statistically significant increase of bladder volume capacity)” value [2] was 3 mg/kg os.
For `Cc1cccc(C#CC=C2CCN(c3ccc(F)cc3[N+](=O)[O-])CC2)n1` [Example 55, 2-{3-[1-(4-Fluoro-2-nitrophenyl)piperidin-4-ylidene]prop-1-ynyl}-6-methylpyridine], the “"In vivo" cystometry MED (Minimal Effective Dose that induces statistically significant increase of bladder volume capacity)” value [2] was 0.3 mg/kg os.
In the case of `Cc1cccc(C#CC=C2CCN(c3ccc(C#N)cc3[N+](=O)[O-])CC2)n1` [Example 56, 4-{4-[3-(6-Methylpyridin-2-yl)prop-2-ynylidene]piperidin-1-yl}-3-nitrobenzonitrile], the “"In vivo" cystometry MED (Minimal Effective Dose that induces statistically significant increase of bladder volume capacity)” value [2] is reported as 1 mg/kg os.
`O=[N+]([O-])c1cccnc1N1CCC(=C(F)C#Cc2ccccc2)CC1` [Example 67, 2-[4-(1-Fluoro-3-phenylprop-2-yn-1-ylidene)piperidin-1-yl]-3-nitropyridine] was tested, and the “"In vivo" cystometry MED (Minimal Effective Dose that induces statistically significant increase of bladder volume capacity)” value [2] was 1 mg/kg os.
For `O=[N+]([O-])c1cccnc1N1CCC(=CC#Cc2cc(F)cc(F)c2)CC1` [Example 202, 2-{4-[3-(3,5-Difluorophenyl)prop-2-yn-1-ylidene]piperidin-1-yl}-3-nitropyridine], the “"In vivo" cystometry MED (Minimal Effective Dose that induces statistically significant increase of bladder volume capacity)” value [2] was 3 mg/kg os.
`O=[N+]([O-])c1cccnc1N1CCC(=CC#Cc2cccc(Br)c2)CC1` [Example 208, 2-{4-[3-(3-Bromophenyl)prop-2-yn-1-ylidene]piperidin-1-yl}-3-nitropyridine] was tested, and the “"In vivo" cystometry MED (Minimal Effective Dose that induces statistically significant increase of bladder volume capacity)” value [2] was 0.3 mg/kg os.
In the case of `Cc1nc(C#Cc2cccnc2)cs1` [MTEP, reference compound], the “effect on bladder volume capacity” value ([2]; 1 mg/kg orally) is reported as “only a slight increase of bladder volume capacity”, the “effect on bladder volume capacity” value ([2]; 3 mg/kg orally) is reported as “sustained increase” and the “"In vivo" cystometry MED (Minimal Effective Dose that induces statistically significant increase of bladder volume capacity)” value [2] is reported as 3 mg/kg os.

Reference: US8518916B2, “Heterocyclic derivatives as M-GLU5 antagonists” (Recordati Ireland Limited, priority 2007, dated 2013)
